Measurements from ChEMBL document CHEMBL1201862, “PubChem BioAssay data set” (2004).
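Step 1: Grow cells in 96-well plates. Step 2: Expose to compound for 48 hours at 5 concentrations. Step 3: Interpolate endpoints linearly; if unreached, use highest concentration. GI50 marks 50% less growth.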 Activity calls are given as the source filed them. No stated cut-off is given here; in the data, active = GI50 up to about 1.1 µM and inactive = higher.

How the values were obtained:
Assay in all cases: inhibition of tumour cell growth, NCI panel, 48 h
EKVX = test system: EKVX
SN12C = test system: SN12C
TK-10 = test system: TK-10
NCI-H23 = test system: NCI-H23
SR = test system: SR
HT-29 = test system: HT-29
IGROV-1 = test system: IGROV-1
HCT-116 = test system: HCT-116
U-251 = test system: U-251
SF-295 = test system: SF-295
OVCAR-5 = test system: OVCAR-5
HL-60 = test system: HL-60
MOLT-4 = test system: MOLT-4
M14 = test system: M14
CCRF-CEM = test system: CCRF-CEM
HCC 2998 = test system: HCC 2998

Measured: GI50

C=C(C)CC(C(=O)O)c1ccc(C)cc1 (centres undefined)
inactive: EKVX > 100 µM | SN12C > 100 µM | TK-10 > 100 µM | NCI-H23 > 100 µM | SR > 100 µM | HT-29 > 100 µM | IGROV-1 > 100 µM | HCT-116 > 100 µM | U-251 > 100 µM | SF-295 > 100 µM | OVCAR-5 > 100 µM

CCN1C(=O)/C(=C\c2coc3ccccc3c2=O)SC1=S
inactive: HL-60 > 100 µM | EKVX > 100 µM | SN12C > 100 µM | TK-10 > 100 µM | NCI-H23 58.9 µM | SR 36.6 µM | HT-29 > 100 µM | MOLT-4 > 100 µM | M14 > 100 µM | IGROV-1 > 100 µM | HCT-116 64 µM | U-251 28.3 µM | CCRF-CEM 65.6 µM | SF-295 42 µM | OVCAR-5 > 100 µM | HCC 2998 > 100 µM

CSC1CC2C(CC1(C)SC)C2(C)C (centres undefined)
inactive: HL-60 20.2 µM | EKVX 30.2 µM | TK-10 > 100 µM | NCI-H23 61.7 µM | SR 30.8 µM | HT-29 38.8 µM | MOLT-4 22.6 µM | M14 92 µM | IGROV-1 42.8 µM | U-251 32.1 µM | CCRF-CEM 28.2 µM | SF-295 30.8 µM | OVCAR-5 40.8 µM | HCC 2998 87.1 µM

Sc1nnc(-c2ccccc2)n1/N=C\c1ccc(-c2ccc(Cl)cc2)o1
inactive: HL-60 > 100 µM | TK-10 > 100 µM | NCI-H23 > 100 µM | SR > 100 µM | HT-29 > 100 µM | MOLT-4 > 100 µM | M14 > 100 µM | IGROV-1 > 100 µM | HCT-116 > 100 µM | U-251 > 100 µM | SF-295 > 100 µM | OVCAR-5 > 100 µM

O=C(c1ccccc1)c1nnc(C(=O)c2ccccc2)nn1
inactive: HL-60 > 344 µM | EKVX > 344 µM | SN12C > 344 µM | TK-10 > 344 µM | NCI-H23 308 µM | SR 4.45 µM | HT-29 > 344 µM | MOLT-4 > 344 µM | M14 272 µM | IGROV-1 > 344 µM | HCT-116 > 344 µM | U-251 165 µM | CCRF-CEM 265 µM | SF-295 139 µM | OVCAR-5 > 344 µM | HCC 2998 36.3 µM

CN(C)CC1CCCC/C1=N/OC(=O)c1ccc(Cl)c(Cl)c1 (centres undefined)
inactive: HL-60 > 100 µM | EKVX > 100 µM | SN12C > 100 µM | TK-10 > 100 µM | NCI-H23 > 100 µM | SR > 100 µM | HT-29 > 100 µM | M14 > 100 µM | IGROV-1 > 100 µM | HCT-116 > 100 µM | U-251 > 100 µM | CCRF-CEM > 100 µM | SF-295 > 100 µM | OVCAR-5 > 100 µM | HCC 2998 > 100 µM

CCOc1cccc2cccnc12
inactive: HL-60 > 100 µM | EKVX > 100 µM | SN12C > 100 µM | TK-10 > 100 µM | NCI-H23 > 100 µM | HT-29 > 100 µM | MOLT-4 > 100 µM | M14 > 100 µM | IGROV-1 > 100 µM | HCT-116 > 100 µM | CCRF-CEM > 100 µM | SF-295 > 100 µM | OVCAR-5 > 100 µM | HCC 2998 > 100 µM

Nc1ccc2c(c1)CC1c3ccccc3C(C2)c2ccccc21
inactive: HL-60 > 100 µM | SN12C > 100 µM | TK-10 > 100 µM | SR 9.68 µM | HT-29 > 100 µM | MOLT-4 > 100 µM | M14 > 100 µM | IGROV-1 > 100 µM | HCT-116 > 100 µM | U-251 > 100 µM | CCRF-CEM 47.3 µM | SF-295 > 100 µM | OVCAR-5 > 100 µM | HCC 2998 > 100 µM

COc1ccc(/C(=C/n2ccnc2)C(O)c2ccc(OC)c(OC)c2)cc1OC (centres undefined)
inactive: HL-60 28.8 µM | SN12C > 100 µM | TK-10 > 100 µM | NCI-H23 > 100 µM | SR 12.3 µM | HT-29 > 100 µM | MOLT-4 > 100 µM | M14 > 100 µM | IGROV-1 > 100 µM | U-251 > 100 µM | CCRF-CEM 26.7 µM | SF-295 > 100 µM | OVCAR-5 > 100 µM

CC1=NC(C(C)C)C(=O)O1 (centres undefined)
inactive: HL-60 > 100 µM | EKVX > 100 µM | SN12C > 100 µM | TK-10 > 100 µM | NCI-H23 > 100 µM | HT-29 61.1 µM | MOLT-4 > 100 µM | M14 > 100 µM | IGROV-1 > 100 µM | HCT-116 18.5 µM | U-251 > 100 µM | CCRF-CEM > 100 µM | SF-295 > 100 µM | OVCAR-5 > 100 µM | HCC 2998 > 100 µM

O=C(O)C(CS)Nc1c2ccccc2[n+]([O-])c2ccccc12 (centres undefined)
inactive: HL-60 50.2 µM | EKVX 80.4 µM | SN12C > 100 µM | TK-10 > 100 µM | NCI-H23 87.7 µM | HT-29 > 100 µM | MOLT-4 > 100 µM | M14 > 100 µM | IGROV-1 > 100 µM | HCT-116 92 µM | U-251 > 100 µM | CCRF-CEM > 100 µM | SF-295 > 100 µM | OVCAR-5 > 100 µM | HCC 2998 > 100 µM

CN(C)CCC(CCN(C)C)=NO
inactive: HL-60 > 100 µM | EKVX > 100 µM | SN12C > 100 µM | TK-10 > 100 µM | NCI-H23 > 100 µM | HT-29 > 100 µM | MOLT-4 > 100 µM | M14 > 100 µM | IGROV-1 > 100 µM | HCT-116 > 100 µM | U-251 > 100 µM | CCRF-CEM > 100 µM | SF-295 > 100 µM | HCC 2998 > 100 µM

CSC1=NC=CCN1C
inactive: HL-60 > 100 µM | EKVX > 100 µM | SN12C > 100 µM | TK-10 > 100 µM | NCI-H23 > 100 µM | HT-29 > 100 µM | MOLT-4 > 100 µM | M14 > 100 µM | IGROV-1 > 100 µM | HCT-116 > 100 µM | U-251 > 100 µM | CCRF-CEM > 100 µM | SF-295 > 100 µM | OVCAR-5 > 100 µM | HCC 2998 > 100 µM

CCCCCCCCC(=O)CCCCCCCCC(=O)O
inactive: HL-60 4.09 µM | EKVX 28.4 µM | SN12C 25.6 µM | TK-10 33.3 µM | NCI-H23 30.3 µM | SR 16.2 µM | HT-29 23 µM | MOLT-4 14.8 µM | M14 32.1 µM | IGROV-1 18.7 µM | HCT-116 21.6 µM | U-251 25.1 µM | CCRF-CEM 28.6 µM | SF-295 26.4 µM | OVCAR-5 24.8 µM

O=C1C2C3C=CC(C2C(=O)N1COP(=O)(O)O)C1C2C(=O)N(COP(=O)(O)O)C(=O)C2C31 (centres undefined)
inactive: HL-60 15.5 µM | EKVX > 100 µM | SN12C > 74.3 µM | TK-10 > 100 µM | NCI-H23 > 100 µM | SR 17.5 µM | HT-29 > 100 µM | MOLT-4 > 100 µM | M14 > 100 µM | IGROV-1 > 100 µM | HCT-116 > 42.6 µM | U-251 > 70.5 µM | CCRF-CEM > 42.4 µM | SF-295 > 100 µM | OVCAR-5 > 100 µM | HCC 2998 > 100 µM

C=C[C@@]1(C)CCC2(O)C(CCC3C2(C)CCC[C@@]3(C)COC(=O)CC(=O)OC)C1 (some centres undefined)
inactive: HL-60 19.2 µM | SN12C 19.9 µM | TK-10 18.7 µM | NCI-H23 20.6 µM | SR 22.2 µM | HT-29 18.9 µM | MOLT-4 17.2 µM | M14 18.1 µM | IGROV-1 26.5 µM | HCT-116 18 µM | U-251 17.9 µM | CCRF-CEM 32.7 µM | OVCAR-5 20.1 µM | HCC 2998 61.4 µM

COc1ccc(C2Oc3cc(OC)c(O)c(C)c3[C@H]2C)cc1 (some centres undefined)
inactive: HL-60 18.2 µM | EKVX 26.6 µM | TK-10 > 100 µM | NCI-H23 57.3 µM | HT-29 > 100 µM | MOLT-4 33.3 µM | M14 > 100 µM | IGROV-1 > 100 µM | HCT-116 35.6 µM | U-251 > 100 µM | CCRF-CEM 36.2 µM | SF-295 > 100 µM | OVCAR-5 > 100 µM | HCC 2998 > 100 µM

O=C(O)c1ccccc1NS(=O)(=O)c1ccc(Cl)cc1
inactive: EKVX > 100 µM | SN12C > 100 µM | TK-10 > 100 µM | NCI-H23 > 100 µM | HT-29 > 100 µM | MOLT-4 > 100 µM | M14 > 100 µM | IGROV-1 > 100 µM | HCT-116 > 100 µM | U-251 > 100 µM | CCRF-CEM > 100 µM | OVCAR-5 > 100 µM | HCC 2998 > 100 µM

C=C1C(=O)O[C@H]2[C@H]1[C@H](OC(=O)/C(C)=C\C)CC(=C)[C@@H]1[C@H](O)[C@H]3O[C@@]3(C)[C@@]12O [EUPATUNDIN]
inactive: EKVX > 100 µM | SN12C > 100 µM | TK-10 > 100 µM | NCI-H23 > 100 µM | SR > 100 µM | HT-29 > 100 µM | M14 > 100 µM | IGROV-1 > 100 µM | HCT-116 > 100 µM | U-251 > 100 µM | CCRF-CEM > 100 µM | SF-295 > 100 µM | HCC 2998 > 100 µM
